Test results as given in ChEMBL document CHEMBL4814058, “Light-inducible control of cellular proliferation and differentiation by a Hedgehog signaling inhibitor” (Bioorg Med Chem, 2021).
Calls of active or inactive are those of the source. The calls are words filed in the database; no cut-off is given here.

Experiments:
NIH/3T3 [1] = experiment: Inhibition of SAG-induced hedgehog signalling in mouse NIH/3T3 cells assessed as reduction in Gli1 mRNA expression at 0.1 to 10 uM measured after 6 hrs by RT-PCR analysis; format: cell-based; details: dose 0.1-10 µM
NIH/3T3 [2] = experiment: Inhibition of hedgehog signalling in mouse NIH/3T3 cells assessed as reduction in Ptc mRNA expression at 0.1 to 10 uM measured after 6 hrs by RT-PCR analysis; format: cell-based; details: dose 0.1-10 µM
NIH/3T3 [3] = experiment: Inhibition of SAG-induced hedgehog signalling in mouse NIH/3T3 cells assessed as reduction in Ptc mRNA expression at 0.1 to 10 uM measured after 6 hrs by RT-PCR analysis; format: cell-based; details: dose 0.1-10 µM
NIH/3T3 [4] = experiment: Inhibition of hedgehog signalling in mouse NIH/3T3 cells assessed as reduction in Shh mRNA expression at 0.1 to 10 uM measured after 6 hrs by RT-PCR analysis; format: cell-based; details: dose 0.1-10 µM
NIH/3T3 [5] = experiment: Inhibition of hedgehog signalling in mouse NIH/3T3 cells assessed as reduction in Gli1 mRNA expression at 0.1 to 10 uM measured after 6 hrs by RT-PCR analysis; format: cell-based; details: dose 0.1-10 µM
NIH/3T3 [6] = experiment: Inhibition of SAG-induced hedgehog signalling in mouse NIH/3T3 cells assessed as reduction in Shh mRNA expression at 0.1 to 10 uM measured after 6 hrs by RT-PCR analysis; format: cell-based; details: dose 0.1-10 µM
NIH3T3 [7] = experiment: Cytotoxicity against mouse NIH/3T3 cells assessed as reduction in cell viability at 1 to 10 uM irradiated with 4 J/cm2 light followed by compound exposure and measured after 6 hrs by MTT assay; format: cell-based; details: nih3t3, 6 h, dose 1-10 µM
NIH3T3 [8] = experiment: Cytotoxicity against mouse NIH/3T3 cells assessed as reduction in cell viability at 1 to 10 uM incubated for 6 hrs by MTT assay; format: cell-based; details: nih3t3, 6 h, dose 1-10 µM
[9] = Effect on differentiation of ICR mouse cerebellar granule neuron assessed as effect on Ki67-positive cells with low neurites at 100 nM incubated for 48 hrs by TUBB3 staining based immunofluorescence assay; format: tissue-based; details: cerebellar granule neurone, 0.1 µM
[10] = Effect on differentiation of ICR mouse cerebellar granule neuron assessed as effect on neurite length of Ki67-negative cells at 100 nM incubated for 48 hrs by TUBB3 staining based immunofluorescence assay; format: tissue-based; details: cerebellar granule neurone, 0.1 µM
[11] = Effect on differentiation of ICR mouse cerebellar granule neuron assessed as effect on neurite length of Ki67-positive cells at 100 nM incubated for 48 hrs by TUBB3 staining based immunofluorescence assay; format: tissue-based; details: cerebellar granule neurone, 0.1 µM
NIH/3T3 [12] = experiment: Inhibition of SAG-induced hedgehog signalling in mouse NIH/3T3 cells assessed as reduction in Gli1 mRNA expression at > 1 uM measured after 6 hrs by RT-PCR analysis; format: cell-based; details: dose microM >1, time 6.0 hrs
[13] = tested on: Cerebellar granule neurone; experiment: Antiproliferative activity against ICR mouse cerebellar granule neurons assessed as reduction in Ki67 expression at 100 nM irradiated with 4 J/cm2 light followed by incubation with compound for 48 hrs by immunostaining analysis; format: functional, tissue-based
[14] = Effect on differentiation of ICR mouse cerebellar granule neuron assessed as effect on Ki67-negative cells with neurite outgrowth at 100 nM incubated for 48 hrs by TUBB3 staining based immunofluorescence assay; format: tissue-based; details: cerebellar granule neurone, 0.1 µM
[15] = tested on: Cerebellar granule neurone; experiment: Antiproliferative activity against ICR mouse cerebellar granule neurons assessed as reduction in Ki67 expression at 100 nM incubated for 48 hrs by immunostaining analysis; format: functional, tissue-based
[16] = Effect on differentiation of ICR mouse cerebellar granule neuron assessed as effect on neurite length of Ki67-positive cells at 100 nM irradiated with 4 J/cm2 light followed by incubation with compound for 48 hrs by TUBB3 staining based immunofluorescence assay; format: tissue-based; details: cerebellar granule neurone, 0.1 µM
[17] = Effect on differentiation of ICR mouse cerebellar granule neuron assessed as effect on neurite length of Ki67-negative cells at 100 nM irradiated with 4 J/cm2 light followed by incubation with compound for 48 hrs by TUBB3 staining based immunofluorescence assay; format: tissue-based; details: cerebellar granule neurone, 0.1 µM
NIH/3T3 [18] = experiment: Inhibition of hedgehog signalling in mouse NIH/3T3 cells assessed as reduction in Gli1 mRNA expression at 1 uM measured after 6 hrs by RT-PCR analysis; format: cell-based
[19] = Photostability of compound assessed as drug degradation at 1 mM irradiated with 8 J/cm2 light by HPLC/MS analysis; format: physicochemical; details: read-out: Drug degradation
NIH/3T3 [20] = experiment: Inhibition of SAG-induced hedgehog signalling in mouse NIH/3T3 cells assessed as reduction in Gli1 mRNA expression at 1 uM irradiated with 4 J/cm2 light followed by compound exposure and measured after 6 hrs by RT-PCR analysis; format: cell-based
[21] = Effect on differentiation of ICR mouse cerebellar granule neuron assessed as effect on Ki67-positive cells with low neurites at 100 nM irradiated with 4 J/cm2 light followed by incubation with compound for 48 hrs by TUBB3 staining based immunofluorescence assay; format: tissue-based; details: cerebellar granule neurone, 0.1 µM
[22] = Photostability of compound assessed as drug degradation at 1 mM irradiated with 2 J/cm2 light by HPLC/MS analysis; format: physicochemical; details: read-out: Drug degradation
[23] = Effect on differentiation of ICR mouse cerebellar granule neuron assessed as effect on Ki67-negative cells with neurite outgrowth at 100 nM irradiated with 4 J/cm2 light followed by incubation with compound for 48 hrs by TUBB3 staining based immunofluorescence assay; format: tissue-based; details: cerebellar granule neurone, 0.1 µM

## CC1=C2C[C@H]3[C@@H](CC=C4C[C@@H](O)CC[C@@]43C)[C@@H]2CC[C@]12O[C@@H]1C[C@H](C)CN[C@H]1[C@H]2C
NIH/3T3 [1]
  inhibition: Active
NIH/3T3 [2]
  inhibition: inactive
NIH/3T3 [3]
  inhibition: Active
NIH/3T3 [4]
  inhibition: inactive
NIH/3T3 [5]
  inhibition: inactive
NIH/3T3 [6]
  inhibition: inactive

## CCCN[C@H]1CC[C@H](N(Cc2cccc(-c3ccncc3)c2)C(=O)c2sc3ccccc3c2Cl)CC1
NIH3T3 [7]
  Activity: Non-Toxic
NIH/3T3 [1]
  inhibition: Active
NIH/3T3 [2]
  inhibition: inactive
NIH3T3 [8]
  Activity: Non-Toxic
NIH/3T3 [3]
  inhibition: Active
[9]
  Activity: Non-Toxic
[10]
  Activity: Non-Toxic
NIH/3T3 [4]
  inhibition: inactive
[11]
  Activity: Non-Toxic
NIH/3T3 [12]
  inhibition: Active
NIH/3T3 [5]
  inhibition: inactive
[13]
  Activity: Active
[14]
  Activity: Non-Toxic
NIH/3T3 [6]
  inhibition: inactive

## CCCN(C(=O)OC(C)c1cc(OC)c(OCCCC(=O)O)cc1[N+](=O)[O-])[C@H]1CC[C@H](N(Cc2cccc(-c3ccncc3)c2)C(=O)c2sc3ccccc3c2Cl)CC1 (stereo partly specified)
[15]
  Activity: inactive
NIH3T3 [7]
  Activity: Non-Toxic
[16]
  Activity: Non-Toxic
[17]
  Activity: Non-Toxic
NIH3T3 [8]
  Activity: Non-Toxic
NIH/3T3 [18]
  inhibition: inactive
[9]
  Activity: Non-Toxic
[19]
  degraded at 1000 µM: 100%
[10]
  Activity: Non-Toxic
[11]
  Activity: Non-Toxic
NIH/3T3 [20]
  inhibition: Active
[21]
  Activity: Non-Toxic
[13]
  Activity: Active
[22]
  degraded at 1000 µM: 90%
[14]
  Activity: Non-Toxic
[23]
  Activity: Non-Toxic
